Measurements published in US20250268799A1, “MEDIUM FOR WATER-FREE ROOT CANAL DISINFECTANT WITH HIGH FLUIDITY, DISINFECTANT USING SAME, AND USE THEREOF” (WENZHOU QINGCHENG HEALTHCARE TECH LTD., priority 2022, published 2025).

Tests used:
Water dispersion test = type: physicochemical; conditions: 0.5% surfactant added to Paste A
Description: Add appropriate food-grade carmine dye to the above pastes, homogenize thoroughly with a homogenizer so that each paste can be squeezed out from a 25 G root canal irrigation needle, and divide into syringes for use.
S1: Prepare 23 150 mL beakers with similar diameters, fill them with water, and inject one drop (approximately 0.01 g) of each of the 23 pastes (A, B, C, D, E, F, G, H, A1-A15) into each beaker through a 25 G root canal irrigation needle (except G and H).
S2: Observe the color change immediately after preparation.

Enterococcus faecalis = conditions: in vitro direct contact; cited from earlier work
bacteria = conditions: intracanal medicament for one week; cited from earlier work

| Compound | effect of surfactant on the dispersion of the paste in water (Water dispersion test) | contact time for complete eradication of Enterococcus faecalis (Enterococcus faecalis) | reduction of bacteria (bacteria) |
| --- | --- | --- | --- |
| Fatty Alcohol Polyoxyethylene Ether [AEO-9] | negative effects |  |  |
| CC(=O)O.CC(=O)O.NC(=N\CCCCCC/N=C(N)/N=C(\N)Nc1ccc(Cl)cc1)/N=C(\N)Nc1ccc(Cl)cc1 [CHX, Chlorhexidine Acetate] | best performance |  |  |
| Polyoxyethylene (60) Hydrogenated Castor Oil [RH60] | best performance |  |  |
| [Ca+2].[OH-].[OH-] [calcium hydroxide] |  | 24 h | 92.5% |
